In US12396963B2, “Cannabidiol-type cannabinoid compound” (JAZZ PHARMACEUTICALS RESEARCH UK LIMITED, priority 2019, dated 2025):

Tests used:
[1] = tested on: mouse model of generalised seizure; experiment: Maximal electroshock seizure threshold (MEST) test in the mouse, Example 3; settings: CC50, 30 min pre-treatment
Protocol: The efficacy of CBD-C1 was tested in a mouse model of generalised seizure, the maximal electroshock seizure threshold (M EST) test, as in Example 2.
Naïve mice were acclimatised to the procedure room in their home cages for up to 7 days, with food and water available ad libitum.
All animals were weighed at the beginning of the study and randomly assigned to treatment groups based on a mean distribution of body weight across groups.
The first animal within a treatment group was given a shock at the expected or estimated CC50 current. For subsequent animals, the current was lowered or raised depending on the convulsions outcome from the preceding animal.
Data generated from each treatment group were used to calculate the CC50±SEM values for the treatment group.
Vehicle: (5% ethanol, 5% solutol, 90% Saline) was prepared as follows: 2 mL of ethanol, 2 mL of solutol were warmed to 60° C., in 36 mL of saline (1:1:18).
The test compound, CBD-C1 was prepared according to the method described in Example 1. […]
CBD-C1 effects were also calculated as percentage change in CC50 from the vehicle control group.
Significant difference between drug-treated animals and controls were assessed according to Litchfield and Wilcoxon (1949).

[2] = tested on: mouse model of seizure; experiment: Maximal electroshock seizure threshold (MEST) test in the mouse, Example 2; settings: CC50; 2.5 mg/kg i.p., 30 min pre-treatment
Protocol: The efficacy of CBD-C1 was tested in a mouse model of seizure, the maximal electroshock seizure threshold (MEST) test.
The maximal electroshock seizure threshold (MEST) test is widely utilized preclinically to evaluate pro- and anti-convulsant properties of molecules (Loscher et al., 1991).
In the MEST test the ability of a drug to alter the seizure threshold current required to induce hind limb tonic extensor convulsions is measured according to an “up and down” method of shock titration (Kimball et al., 1957). An increase in seizure threshold is indicative of anti-convulsant effect.
Naïve mice were acclimatised to the procedure room in their home cages, with food and water available ad libitum.
Animals were dosed i.p. according to dose group.
The vehicle (10 ml/kg i.p. 60 min pre-treatment time) was 1:1:18 vehicle 5% ethanol, 5% kolliphor EL, 90% saline. […]
Mice were individually assessed for the production of a tonic hind limb extensor seizure using a Hugo Sachs Electronik stimulator, which delivered an adjustable constant current (1-300 mA) of 0.1 s duration via corneal electrodes. […]
Induction of seizure is measured as an all-or-nothing effect scored as either present (+) or absent (0) for each animal.
Data was analysed by comparing treated groups with the appropriate vehicle control using Fisher's Exact Probability tests.

Row | SMILES | % change from vehicle ([1]; 2.5 mg/kg i.p.) [%] | % change from vehicle [2] [%] | % change from vehicle ([1]; 250 mg/kg i.p.) [%]
1 | CN1C(=O)CN=C(c2ccccc2)c2cc(Cl)ccc21 [Diazepam, diazepam, reference compound] | 247 | 68 | –
2 | CCCC(CCC)C(=O)[O-].[Na+] [Sodium Valproate, sodium valproate, reference compound] | – | – | 1160
